Test results: US12103915B2, “TEAD inhibitors and methods of uses thereof” (Insilico Medicine IP Limited, priority 2022, dated 2024)
One block for each compound: values may come before it.

What was measured:
NCI-H226 cells = experiment: Cell growth assay (CellTiter-Glo); type: cell-based, human; settings: Homo sapiens, NCI-H226, 168 h, 7 days treatment, CellTiter-Glo luminescence, read-out: H226 CTG IC50
TEAD1 = TEAD1 (Homo sapiens, UniProt P28347); experiment: Thermal shift assay TEAD1; type: binding
Chain of TEAD1 (P28347 whole entry, species assumed): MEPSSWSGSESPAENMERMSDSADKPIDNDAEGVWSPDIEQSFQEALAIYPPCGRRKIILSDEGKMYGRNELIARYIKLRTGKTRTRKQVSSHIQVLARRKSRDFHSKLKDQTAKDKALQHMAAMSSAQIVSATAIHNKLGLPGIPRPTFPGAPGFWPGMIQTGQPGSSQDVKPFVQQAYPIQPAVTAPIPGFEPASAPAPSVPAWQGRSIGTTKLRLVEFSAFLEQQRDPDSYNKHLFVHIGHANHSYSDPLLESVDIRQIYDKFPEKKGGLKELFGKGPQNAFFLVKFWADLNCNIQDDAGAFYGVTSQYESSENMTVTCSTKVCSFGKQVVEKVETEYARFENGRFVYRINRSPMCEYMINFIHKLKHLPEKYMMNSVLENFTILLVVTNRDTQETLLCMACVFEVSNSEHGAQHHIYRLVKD
In short: (§1)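 Compounds tested at 10 μM and 1 μM, 0.1% DMSO final, with TEAD1 at 0.2 mg/ml or TEAD2 at 0.08 mg/ml final. Melting monitored with Protein Thermal Shift dye on a qPCR instrument.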

TEAD2 = TEAD2 (Homo sapiens, UniProt Q15562); experiment: Thermal shift assay TEAD2; type: binding
Chain of TEAD2 (Q15562 whole entry, species assumed): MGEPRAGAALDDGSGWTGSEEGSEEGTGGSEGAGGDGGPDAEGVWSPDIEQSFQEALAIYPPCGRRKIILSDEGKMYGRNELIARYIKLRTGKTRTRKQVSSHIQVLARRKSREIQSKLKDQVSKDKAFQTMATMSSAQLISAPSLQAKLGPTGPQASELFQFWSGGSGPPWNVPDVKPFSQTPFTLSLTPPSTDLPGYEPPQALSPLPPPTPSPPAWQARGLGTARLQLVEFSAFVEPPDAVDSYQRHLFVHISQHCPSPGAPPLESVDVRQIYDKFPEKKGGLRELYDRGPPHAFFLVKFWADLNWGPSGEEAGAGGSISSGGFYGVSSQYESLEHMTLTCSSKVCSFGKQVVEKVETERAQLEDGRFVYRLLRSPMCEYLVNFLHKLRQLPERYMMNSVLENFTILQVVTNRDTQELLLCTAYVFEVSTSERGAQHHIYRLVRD
In short: as §1

TEAD3 = TEAD3 (Homo sapiens, UniProt Q99594); experiment: Thermal shift assay TEAD3; type: binding
Chain of TEAD3 (Q99594 whole entry, species assumed): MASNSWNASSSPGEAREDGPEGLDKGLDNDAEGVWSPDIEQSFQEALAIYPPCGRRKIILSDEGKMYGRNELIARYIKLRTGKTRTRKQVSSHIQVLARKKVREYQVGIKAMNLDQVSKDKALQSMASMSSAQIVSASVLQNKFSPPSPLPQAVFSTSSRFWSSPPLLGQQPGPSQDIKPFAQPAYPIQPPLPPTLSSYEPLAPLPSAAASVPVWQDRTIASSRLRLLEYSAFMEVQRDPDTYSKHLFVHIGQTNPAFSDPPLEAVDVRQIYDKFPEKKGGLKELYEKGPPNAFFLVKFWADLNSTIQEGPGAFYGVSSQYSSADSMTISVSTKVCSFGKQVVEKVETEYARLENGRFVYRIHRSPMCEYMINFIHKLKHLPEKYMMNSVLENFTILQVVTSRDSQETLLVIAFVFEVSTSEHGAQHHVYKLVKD
In short: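 TEAD3 protein at 0.1 mg/ml final melted with Protein Thermal Shift dye on a qPCR instrument. Compounds tested at 10 μM and 1 μM in PBS, final DMSO 0.1%.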

TEAD4 = TEAD4 (Homo sapiens, UniProt Q15561); experiment: Thermal shift assay TEAD4; type: binding
Chain of TEAD4 (Q15561 whole entry, species assumed): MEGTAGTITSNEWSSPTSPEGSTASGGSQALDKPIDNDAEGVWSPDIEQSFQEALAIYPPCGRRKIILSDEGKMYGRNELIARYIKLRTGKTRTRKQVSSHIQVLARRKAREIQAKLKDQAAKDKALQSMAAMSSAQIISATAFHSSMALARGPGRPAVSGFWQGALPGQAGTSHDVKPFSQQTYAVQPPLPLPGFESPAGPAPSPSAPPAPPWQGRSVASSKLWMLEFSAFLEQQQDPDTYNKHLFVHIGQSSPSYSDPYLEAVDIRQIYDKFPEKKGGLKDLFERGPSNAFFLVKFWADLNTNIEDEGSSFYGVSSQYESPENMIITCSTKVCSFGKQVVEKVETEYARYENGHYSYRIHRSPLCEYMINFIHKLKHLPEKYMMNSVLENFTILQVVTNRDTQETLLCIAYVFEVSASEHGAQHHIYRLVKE
In short: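 Protein thermal shift with TEAD4 at 0.1 mg/ml final, Protein Thermal Shift dye, compounds at 10 μM or 1 μM in PBS with 0.1% DMSO final. Melt reactions assembled on ice and run on a qPCR instrument.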

[1] = Pharmacokinetic profile evaluation in mice; type: in vivo, CD-1 mice; settings: CD-1; mouse, oral administration at 10 mg/kg, plasma
Procedure: Example C: Pharmacokinetic Profile Evaluation
Three CD-1 mice of SPF. (Sino-British SIPPR/BK Lab Animal Ltd, Shanghai.) were intravenously administrated with given compounds (Formulation: 5% DMSO+10% Solutol+85% Saline) or orally gavage administrated with given compounds (Formulation: 5% DMSO+10% Solutol+85% Saline). The blood samples were taken via cephalic vein at timepoints 0.083 h, 0.25 h, 0.5 h, 1 h, 2 h, 4 h, 8 h, and 24 h after intravenous (iv) administration or at timepoints 0.25 h, 0.5 h, 1 h, 2 h, 4 h, 6 h, 8 h, and 24 h after oral gavage administration, 30 μL/time point. Blood samples were placed in tubes containing K2-EDTA and stored on ice until centrifuged. The blood samples were centrifuged at 6800 g for 6 minutes at 2-8° C. within 1 h after collected and stored frozen at approximately −80° C. An aliquot of 20 μL plasma samples were protein precipitated with 400 μL MeOH in which contains 100 ng/mL Verapamil (IS). The mixture was vortexed for 1 min and centrifuged at 18000 g for 10 min. Transfer 400 μL supernatant to 96 well plates. An aliquot of 5 μL supernatant was injected for LC-MS/MS analysis by LC-MS/MS-27 (TQ6500+) instrument. The analytical results were confirmed using quality control samples for intra-assay variation. The accuracy of >66.7% of the quality control samples should be between 80-120% of the known value(s). Standard set of parameters including Area Under the Curve (AUC(0-t)), maximum plasma concentration (Cmax), elimination half-life (T1/2) will be calculated using noncompartmental analysis modules in FDA certified pharmacokinetic program Phoenix WinNonlin 7.0 (Pharsight, USA).

IC50 (NCI-H226 cells): < 100 nM
TEAD1 ΔTm (TEAD1): 9.1 °C
TEAD2 ΔTm (TEAD2): 7.6 °C
TEAD3 ΔTm (TEAD3): 3.0 °C
TEAD4 ΔTm (TEAD4): 10 °C
AUC(0-t) [1]: 16100 ng·h/mL
Cmax [1]: 2470 ng/mL
half-life [1]: 2.6 h
Compound: CNS(=O)(=O)CCc1cc(-c2ccc(C(F)(F)F)cc2)cc2cn(C)nc12 [Example 44]

IC50 (NCI-H226 cells): < 100 nM
TEAD1 ΔTm (TEAD1): 10.2 °C
TEAD2 ΔTm (TEAD2): 14.2 °C
TEAD3 ΔTm (TEAD3): 10.9 °C
TEAD4 ΔTm (TEAD4): 11.3 °C
AUC(0-t) [1]: 31800 ng·h/mL
Cmax [1]: 3180 ng/mL
half-life [1]: 2.2 h
Compound: CNC(=O)[C@H]1C[C@@H]1c1cc(Oc2ccc(C(F)(F)F)cc2)cc2cn(C)nc12 (single isomer, unassigned) [Example 34b]

IC50 (NCI-H226 cells): < 100 nM
TEAD1 ΔTm (TEAD1): 8.2 °C
TEAD2 ΔTm (TEAD2): 9.8 °C
TEAD3 ΔTm (TEAD3): 9.2 °C
TEAD4 ΔTm (TEAD4): 11.1 °C
AUC(0-t) [1]: 51600 ng·h/mL
Cmax [1]: 4120 ng/mL
half-life [1]: 4.8 h
Compound: Cn1cc2cc(Oc3ccc(C(F)(F)F)cc3)cc(C3C[C@H]3C(=O)N3C[C@@H]4C[C@H]3C[C@@H]4O)c2n1 (single isomer, unassigned) [Example 103f]

IC50 (NCI-H226 cells): 100 to 500 nM
TEAD1 ΔTm (TEAD1): 9.3 °C
TEAD2 ΔTm (TEAD2): 10.3 °C
TEAD3 ΔTm (TEAD3): 4 °C
TEAD4 ΔTm (TEAD4): 10.6 °C
AUC(0-t) [1]: 11500 ng·h/mL
Cmax [1]: 3100 ng/mL
half-life [1]: 2.2 h
Compound: CNS(=O)(=O)CCc1cc(Oc2ccc(C(F)(F)F)cc2)cc2cn(C)nc12 [Example 45]

IC50 (NCI-H226 cells): 100 to 500 nM
TEAD1 ΔTm (TEAD1): 7.6 °C
TEAD2 ΔTm (TEAD2): 9.4 °C
TEAD3 ΔTm (TEAD3): 12.4 °C
TEAD4 ΔTm (TEAD4): 14 °C
Compound: CC(NC(=O)[C@@H]1CC1c1cc(Oc2ccc(C(F)(F)F)cc2)cc2cn(C)nc12)c1ccccn1 (mixture of isomers) [Example 57]

IC50 (NCI-H226 cells): < 100 nM
TEAD1 ΔTm (TEAD1): 5.4 °C
TEAD2 ΔTm (TEAD2): 11.2 °C
TEAD3 ΔTm (TEAD3): 5.4 °C
TEAD4 ΔTm (TEAD4): 6.1 °C
Compound: Cn1ncc2c(C3C[C@H]3C(N)=O)cc(Oc3ccc(C(F)(F)F)cc3)cc21 (mixture of isomers) [Example 35]

IC50 (NCI-H226 cells): 100 to 500 nM
TEAD1 ΔTm (TEAD1): 7.3 °C
TEAD2 ΔTm (TEAD2): 9.2 °C
TEAD3 ΔTm (TEAD3): 0 °C
TEAD4 ΔTm (TEAD4): 8.4 °C
Compound: Cn1cc2cc(Oc3ccc(C(F)(F)F)cc3)cc(C3C[C@H]3C(=O)N3CCC4(COC4)C3)c2n1 (single isomer, unassigned) [Example 98]

IC50 (NCI-H226 cells): 1000 to 30000 nM
TEAD1 ΔTm (TEAD1): 6.0 °C
TEAD2 ΔTm (TEAD2): 9.8 °C
TEAD3 ΔTm (TEAD3): 1.0 °C
TEAD4 ΔTm (TEAD4): 7.7 °C
Compound: CN(C#N)C(=O)[C@@H]1C[C@H]1c1cc(Oc2ccc(C(F)(F)F)cc2)cc2cn(C)nc12 (single isomer, unassigned) [Example 124]

More lines, now with the values behind:

Compound: Cn1ncc2c(C3C[C@H]3C(=O)O)cc(Oc3ccc(C(F)(F)F)cc3)cc21 (mixture of isomers) [Example 18]
IC50 (NCI-H226 cells): 100 to 500 nM
TEAD1 ΔTm (TEAD1): 8.8 °C
TEAD2 ΔTm (TEAD2): 14 °C
TEAD3 ΔTm (TEAD3): 7.4 °C
TEAD4 ΔTm (TEAD4): 9.1 °C
AUC(0-t) [1]: 617000 ng·h/mL
Cmax [1]: 41200 ng/mL
half-life [1]: 11.2 h

Compound: O=C(O)[C@@H]1CC1c1cc(Oc2ccc(C(F)(F)F)cc2)cc2cccnc12 (mixture of isomers) [Example 17]
IC50 (NCI-H226 cells): 100 to 500 nM
TEAD1 ΔTm (TEAD1): 9.2 °C
TEAD2 ΔTm (TEAD2): 14.2 °C
TEAD3 ΔTm (TEAD3): 11.7 °C
TEAD4 ΔTm (TEAD4): 10.1 °C
AUC(0-t) [1]: 497000 ng·h/mL
Cmax [1]: 33700 ng/mL
half-life [1]: 26 h

Compound: Cn1cc2cc(Oc3ccc(C(F)(F)F)cc3)cc(C3C[C@H]3C(=O)O)c2n1 (mixture of isomers) [Example 16]
IC50 (NCI-H226 cells): 100 to 500 nM
TEAD1 ΔTm (TEAD1): 11.6 °C
TEAD2 ΔTm (TEAD2): 12.7 °C
TEAD3 ΔTm (TEAD3): 13.1 °C
TEAD4 ΔTm (TEAD4): 11.8 °C
AUC(0-t) [1]: 676000 ng·h/mL
Cmax [1]: 40100 ng/mL
half-life [1]: 26.4 h

Compound: CNC(=O)[C@@H]1CC1c1cc(-c2ccc(C(F)(F)F)cc2)cc2c1cnn2C (mixture of isomers) [Example 24]
IC50 (NCI-H226 cells): 100 to 500 nM
TEAD1 ΔTm (TEAD1): 2.4 °C
TEAD2 ΔTm (TEAD2): 4.5 °C
TEAD3 ΔTm (TEAD3): 0.3 °C
TEAD4 ΔTm (TEAD4): 2.4 °C
AUC(0-t) [1]: 70000 ng·h/mL
Cmax [1]: 5530 ng/mL
half-life [1]: 5.2 h

Compound: Cn1cc2cc(-c3ccc(C(F)(F)F)cc3)cc(C3C[C@H]3C(=O)O)c2n1 (mixture of isomers) [Example 2]
IC50 (NCI-H226 cells): < 100 nM
TEAD1 ΔTm (TEAD1): 8.1 °C
TEAD2 ΔTm (TEAD2): 7 °C
TEAD3 ΔTm (TEAD3): 2.7 °C
TEAD4 ΔTm (TEAD4): 11.4 °C
AUC(0-t) [1]: 104000 ng·h/mL
Cmax [1]: 9750 ng/mL
half-life [1]: 5.4 h

Compound: Cn1ncc2c([C@@H]3C[C@H]3C(=O)N3CC(O)C3)cc(-c3ccc(C(F)(F)F)cc3)cc21 (racemic) [Example 31]
IC50 (NCI-H226 cells): 100 to 500 nM
TEAD1 ΔTm (TEAD1): 3 °C
TEAD2 ΔTm (TEAD2): 2.7 °C
TEAD3 ΔTm (TEAD3): 0 °C
TEAD4 ΔTm (TEAD4): 2.8 °C

Compound: Cn1cc2cc(Oc3ccc(C(F)(F)F)cc3)cc(C3C[C@H]3C(=O)N3[C@@H]4CC[C@H]3C[C@H](O)C4)c2n1 (single isomer, unassigned) [Example 105]
IC50 (NCI-H226 cells): < 100 nM
TEAD1 ΔTm (TEAD1): 6.8 °C
TEAD2 ΔTm (TEAD2): 8.2 °C
TEAD3 ΔTm (TEAD3): 2.2 °C
TEAD4 ΔTm (TEAD4): 8.1 °C
